Values quoted from earlier work in EP0490031B1, “Method for protecting crops while eliminating crop injury due to pesticide interactions” (priority 1990, dated 1992).

Key:
rabbits = conditions: technical grade

Structure (SMILES): CCOP(=S)(OCC)SCSCC [Phorate]
- acute percutaneous LD50 (rats): 2.5-6.2 mg/kg of animal body weight

Structure (SMILES): CCOP(=S)(OCC)SCSC(C)(C)C [Technical grade terbufos, O,O-diethyl S-{[(1,1-dimethylethyl)thio]methyl}phosphorodithioate]
- acute percutaneous LD50 (rabbits): 1.0 mg/kg of animal body weight
